The source of these data is ChEMBL document CHEMBL1152498, “Minor structural differences of monomethine cyanine derivatives yield strong variation in their interactions with DNA, RNA as well as on their in vitro antiproliferative activity” (Bioorg Med Chem, 2009).

In assay [1] the test system is Calf thymus DNA. Kind of assay: Binding affinity to calf thymus double stranded DNA at pH 7 by fluorometric titration method. Format: nucleic-acid assay. To be noted: Bos taurus.
In assay [2] the test system is Nucleic Acid. As to the kind of experiment: Binding affinity to double stranded RNA at pH 7 by fluorometric titration method. The class given is nucleic-acid assay.
The test system of assay [3] is Nucleic Acid. Kind of assay: Binding affinity to poly A-poly U at pH 7 by fluorometric titration method. The class given is nucleic-acid assay.
In assay [4] the test system is Calf thymus DNA. Kind of assay: Binding affinity to calf thymus double helix DNA assessed as thermal denaturation-associated change in melting temperature at pH 7 by tangent method. The class given is nucleic-acid assay. The settings on record: Bos taurus.
The subject of assay [5] is Nucleic Acid. Kind of assay: Binding affinity to poly A-poly U assessed as thermal denaturation-associated change in melting temperature at pH 7 by tangent method. Format: nucleic-acid assay.
Assay [6] deals with Nucleic Acid. Kind of assay: Binding affinity to poly A single stranded RNA at pH 7 by fluorometric titration method. The class given is nucleic-acid assay.
The test system of assay [7] is Nucleic Acid. As to the kind of experiment: Binding affinity to poly G single stranded RNA at pH 7 by fluorometric titration method. Format: nucleic-acid assay.
In assay [8] the test system is Nucleic Acid. As to the kind of experiment: Binding affinity to poly C single stranded RNA at pH 7 by fluorometric titration method. The class given is nucleic-acid assay.
Assay [9] has as its system Nucleic Acid. Kind of assay: Binding affinity to poly U single stranded RNA at pH 7 by fluorometric titration method. Format: nucleic-acid assay.
Assay [10] concerns SW-620. As to the kind of experiment: Cytotoxicity against human SW620 cells after 72 hrs by MTT assay. To be noted: SW-620, 72 h. The class given is functional, cell-based. (In general: Tetrazolium assays rely on reduction of a dye to a coloured formazan, in cell work by metabolically active cells.)
Assay [11] deals with HT-29. Kind of assay: Cytotoxicity against human HT-29 cells after 72 hrs by MTT assay. The settings on record: HT-29, 72 h. The class given is functional, cell-based.
In assay [12] the test system is Caco-2. As to the kind of experiment: Cytotoxicity against human Caco-2 cells after 72 hrs by MTT assay. Format: functional, cell-based. The settings on record: Caco-2, 72 h.
Assay [13] concerns HeLa. Kind of assay: Cytotoxicity against human HeLa cells after 72 hrs by MTT assay. Format: functional, cell-based.
Assay [14] relates to MIA PaCa-2. Kind of assay: Cytotoxicity against human MIAPaCa2 cells after 72 hrs by MTT assay. To be noted: MIA PaCa-2, 72 h. The class given is functional, cell-based.
Assay [15] in a line: Cytotoxicity against human Hep2 cells after 72 hrs by MTT assay. Format: cell-based. To be noted: HEp-2, 72 h.
The test system of assay [16] is NCI-H358. Kind of assay: Cytotoxicity against human NCI-H358 cells after 72 hrs by MTT assay. Format: functional, cell-based. The settings on record: NCI-H358, 72 h.
For assay [17], the system named is K562. Kind of assay: Cytotoxicity against human K562 cells after 72 hrs by MTT assay. Format: functional, cell-based. To be noted: K562, 72 h.
For assay [18], the system named is Jurkat. As to the kind of experiment: Cytotoxicity against human Jurkat cells after 72 hrs by MTT assay. Format: functional, cell-based.
Assay [19] deals with HuT78. As to the kind of experiment: Cytotoxicity against human HUT78 cells after 72 hrs by MTT assay. Format: functional, cell-based. To be noted: HuT78, 72 h.
Assay [20] is described as follows: Cytotoxicity against HAEC after 72 hrs by MTT assay. Also noted: species or system Homo sapiens.
Assay [21] can be described thus: Cytotoxicity against human lymphocytes after 72 hrs by MTT assay. Format: cell-based. The settings on record: Lymphocyte.
Assay [22] relates to HeLa. As to the kind of experiment: Cytotoxicity against human HeLa cells at 0.1 uM after 60 mins by DAPI staining-based visible light microscopy. The class given is functional, cell-based.
Assay [23] relates to Nucleic Acid. As to the kind of experiment: Binding affinity to nuclear DNA in human HeLa cells at 0.1 uM after 60 mins by DAPI staining-based fluorescence microscopy. Format: cell-based.

What is called ΔTm is the shift of the melting midpoint relative to a reference. In general, IC50 refers to the concentration that inhibits the measured activity by half.

The structures appear in SMILES notation. Active and inactive are the calls of the source. The calls are words filed in the database; no cut-off is given here.

Take `CC1=C/C(=C/c2oc3ccccc3[n+]2C)N=C2Sc3cc(Cl)ccc3N12.[O-][Cl+3]([O-])([O-])[O-]`: the log Ks was 4.6 in assay [1]; 4.5 in assay [3]; over 6 in assay [7]; under 4 in assay [8]; under 4 in assay [9]. Further, the outcome in assay [2] and in assay [6] was Active. Moreover, the shift in melting temperature (ΔTm) amounted to 1 °C in [4] and 0 °C in assay [5]. The IC50 in assay [10] is 5800 nM; in assay [11] it was 5.1 µM; in assay [12], 8.2 µM; in assay [13] it was 3.9 µM; in assay [14], 2100 nM; in [15] it was 7000 nM. For the same compound, the IC50 stood at 1100 nM in assay [16]; 60 nM in assay [17]; 520 nM in assay [18]; 60 nM in [19]; 50.3 µM in assay [20]; 90 nM in [21].

With `CC1=C/C(=C/c2sc3ccccc3[n+]2C)N=C2C=CC=CN12.[O-][Cl+3]([O-])([O-])[O-]`, the outcome in assay [1], in [2], in [6], in [7], in assay [8] and in assay [9] was inactive. The ΔTm in assay [4] amounted to 1.9 °C; in assay [5] it was 10.4 °C. Moreover, the IC50 in assay [10] is 7000 nM; in assay [11], 5.2 µM; in [12], 10.1 µM; in assay [13] it was 9.9 µM; in assay [14], 1800 nM; in assay [15], 3600 nM. In addition, the IC50 came to 2000 nM in [16]; 90 nM in assay [17]; 1300 nM in [18]; 200 nM in assay [19]; 9.6 µM in assay [20]; 600 nM in [21].

In the case of `CC1=C/C(=C/c2oc3ccccc3[n+]2C)C(C#N)=C2Sc3ccccc3N12.[O-][Cl+3]([O-])([O-])[O-]`, the log Ks was 5.1 in assay [1]; 6.8 in [3]; 6.2 in assay [6]; over 6 in assay [7]; under 4 in assay [8]; under 4 in [9]. In addition, the outcome in [2] was Active. The values for the ΔTm in assay [4] and in assay [5] were 4.1 °C and 19.5 °C, respectively. The IC50 in [10] was 6800 nM; in [11], 5.9 µM; in assay [12], 9.6 µM; in assay [13] it was 8.2 µM; in [14] it was 2200 nM; in [15], 5500 nM. Besides, the IC50 in assay [16] was determined as 2400 nM; in assay [17] it was 50 nM; in assay [18], 3900 nM; in [19], 500 nM; in assay [20], 50.1 µM; in [21], 100 nM.

`COc1ccc2c(c1)SC1=N/C(=C\c3oc4ccccc4[n+]3C)C=C(C)N12.[O-][Cl+3]([O-])([O-])[O-]`: the log Ks was 5 in assay [1], over 6 in assay [7], under 4 in assay [8] and under 4 in assay [9]. Besides, the outcome in assay [2] and in [6] was Active. The figures for the ΔTm in assay [4] and in assay [5] were 2.7 °C and 0 °C, respectively. Further, the IC50 was 600 nM in assay [10]; 0.5 µM in assay [11]; 1 µM in assay [12]; 2.1 µM in assay [13]; 500 nM in assay [14]; 700 nM in assay [15]. For the same compound, the half-inhibitory concentration (IC50) in assay [16] was found to be 800 nM; in assay [17], 1 nM; in assay [18], 500 nM; in [19] it was 100 nM; in assay [20], 1.1 µM; in [21], 40 nM. Moreover, the result in assay [22] and in [23] was inactive.

`CC1=C/C(=C/c2sc3ccccc3[n+]2C)N=C2Sc3cc(OCCO)ccc3N12.[O-][Cl+3]([O-])([O-])[O-]`: the log Ks in assay [1] is 4.8; in assay [3], 4.5; in assay [7], over 6; in [8], under 4; in assay [9], under 4. Besides, the outcome in assay [2] and in assay [6] was Active. In addition, the ΔTm amounted to 1.3 °C in assay [4] and 0 °C in assay [5]. Moreover, the IC50 in [10] was 550 nM; in assay [11], 1.1 µM; in [12], over 100 µM; in assay [13], 80 µM; in assay [14], 510 nM; in assay [15], 930 nM. In addition, the IC50 was 2100 nM in [16]; 60 nM in [17]; 900 nM in assay [18]; 500 nM in assay [19]; over 200 µM in assay [20]; 1200 nM in assay [21].

With `CCOc1ccc2c(c1)SC1=N/C(=C\c3oc4ccccc4[n+]3C)C=C(C)N12.[O-][Cl+3]([O-])([O-])[O-]`, the log Ks in assay [1] is 4.7; in [3], 4.5; in assay [7] it was over 6; in assay [8], under 4; in assay [9] it was under 4. Besides, the outcome in assay [2] and in [6] was Active. In addition, the results for the ΔTm in assay [4] and in assay [5] were 4 °C and 0 °C, respectively. The IC50 in assay [10] came out at 100 nM; in assay [11], 0.6 µM; in assay [12], 0.8 µM; in [13], 2 µM; in [14], 100 nM; in assay [15], 500 nM. Also, the IC50 was 100 nM in assay [16]; 1 nM in [17]; 90 nM in assay [18]; 50 nM in assay [19]; 1 µM in assay [20]; 10 nM in assay [21].

For `COc1ccc2c(c1)SC1=N/C(=C\c3sc4ccccc4[n+]3C)C=C(C)N12.[O-][Cl+3]([O-])([O-])[O-]`, the log Ks in [1] was 4.5; in assay [3] it was 4.2; in assay [7] it was over 6; in assay [8], under 4; in assay [9] it was under 4. For the same compound, the result in assay [2] and in assay [6] was Active. In addition, the ΔTm in assay [4] was found to be 3 °C; in assay [5] it was 0 °C. The IC50 in assay [10] was 200 nM; in [11] it was 0.5 µM; in [12], 0.8 µM; in [13] it was 0.5 µM; in [14], 60 nM; in assay [15], 500 nM. For the same compound, the IC50 in assay [16] came out at 600 nM; in assay [17], 1 nM; in assay [18], 100 nM; in assay [19] it was 10 nM; in assay [20], 3.3 µM; in assay [21], 100 nM. Also, the outcome in assay [22] and in [23] was inactive.

For the compound `CC1=C/C(=C/c2oc3ccccc3[n+]2C)N=C2Sc3cc(OCCO)ccc3N12.[O-][Cl+3]([O-])([O-])[O-]`, the log Ks is 4.6 in assay [1]; 4.3 in assay [3]; over 6 in assay [7]; under 4 in [8]; under 4 in assay [9]. Also, the outcome in assay [2] and in [6] was Active. Also, the ΔTm in assay [4] turned out to be 0.8 °C; in assay [5] it was 0 °C. In addition, the IC50 is 5200 nM in [10]; 7.2 µM in assay [11]; 40 µM in assay [12]; 80 µM in assay [13]; 8500 nM in assay [14]; 6800 nM in assay [15]. Besides, the IC50 in assay [16] came out at 9000 nM; in assay [17], 70 nM; in assay [18] it was 6600 nM; in [19] it was 700 nM; in assay [20] it was 70 µM; in assay [21] it was 590 nM.
